Reference: patent publication US20150250175A1, “PESTICIDALLY ACTIVE MIXTURES COMPRISING ANTHRANILAMIDE COMPOUNDS” (BASF SE, priority 2012, published 2015)

Legend:
[1] = tested on: vetch aphid (Megoura viciae); experiment: Vetch aphid (Megoura viciae) control, broad bean leaf disks in 24-well microtiter plates; assay type: in vivo; details: sprayed on leaf disks, aphid mortality and fecundity after 5 days
From the text: After application, the leaf disks were air-dried and 5-8 adult aphids placed on the leaf disks inside the microtiter plate wells. […] Aphid mortality and fecundity was then visually assessed.

[2] = tested on: green peach aphid (Myzus persicae); experiment: Green peach aphid (Myzus persicae) control, systemic, artificial diet under membrane, 96-well plates; assay type: in vivo; details: 3 days
From the text: After application, 5-8 adult aphids were placed on the artificial membrane inside the microtiter plate wells. […] Aphid mortality and fecundity was then visually assessed.

[3] = tested on: tobacco budworm (Heliothis virescens); experiment: Tobacco budworm (Heliothis virescens) control, insect diet with eggs, 96-well plates; details: 5 days
[4] = tested on: Mediterranean fruitfly (Ceratitis capitata); experiment: Mediterranean fruitfly (Ceratitis capitata) control, insect diet with eggs, 96-well plates; details: 5 days
[5] = tested on: boll weevil (Anthonomus grandis); experiment: Boll weevil (Anthonomus grandis) control, insect diet with eggs, 24-well plates; details: 5 days
[6] = 3.2 + 0 ppm (mixing partner alone at 3.2 ppm)
[7] = 0 + 1 ppm (compound I alone at 1 ppm)
[8] = 0 + 5 ppm (compound I alone at 5 ppm)
[9] = 0 + 0.2 ppm (compound I alone at 0.2 ppm)
[10] = 0.0016 + 0 ppm (mixing partner alone at 0.0016 ppm)
[11] = 0.08 + 0 ppm (mixing partner alone at 0.08 ppm)

CCOC(=O)OC1=C(c2cc(C)ccc2C)C(=O)N[C@]12CC[C@@H](OC)CC2 [Spirotetramat, spirotetramat, reference compound]
Average (Control %) ([1]; Spirotetramat + I-11 at 80 + 0 ppm (Spirotetramat alone, 80 ppm)): 25%
Average (Control %) [2, 6]: 0%
Average (Control %) ([2]; 80 + 0 ppm (mixing partner alone at 80 ppm)): 50%
Average (Control %) [3, 6]: 0%

CCS(CC)=NC(=O)c1cc(Cl)cc(Cl)c1NC(=O)c1cc(C(F)(F)F)nn1-c1ncccc1Cl [Compound I-16, 2-(3-chloro-2-pyridyl)-N-[2,4-dichloro-6-[(diethyl-λ^4-sulfanylidene)carbamoyl]phenyl]-5-(trifluoromethyl)pyrazole-3-carboxamide]
Average (Control %) [2, 7]: 25%
Average (Control %) [3, 7]: 0%
Average (Control %) [4, 8]: 0%

CCS(CC)=NC(=O)c1cc(Cl)cc(C)c1NC(=O)c1cc(C(F)(F)F)nn1-c1ncccc1Cl [Compound I-11, 2-(3-chloro-2-pyridyl)-N-[2-methyl-4-chloro-6-[(diethyl-λ^4-sulfanylidene)carbamoyl]phenyl]-5-(trifluoromethyl)pyrazole-3-carboxamide]
Average (Control %) ([1]; Spirotetramat + I-11 at 0 + 1 ppm (I-11 alone, 1 ppm)): 0%
Average (Control %) [2, 7]: 0%
Average (Control %) [5, 7]: 0%
Average (Control %) [3, 9]: 0%

N#C/N=C1\SCCN1Cc1ccc(Cl)nc1 [Thiacloprid]
Average (Control %) [2, 10]: 50%
Average (Control %) [5, 10]: 0%

CC[S+]([O-])c1c(C#N)nn(-c2c(Cl)cc(C(F)(F)F)cc2Cl)c1N (centres unmarked) [Ethiprol]
Average (Control %) ([5]; 2 + 0 ppm (mixing partner alone at 2 ppm)): 50%
Average (Control %) [3, 11]: 0%
Average (Control %) ([4]; 10 + 0 ppm (mixing partner alone at 10 ppm)): 0%

Spinosad
Average (Control %) [5, 11]: 0%
Average (Control %) [3, 11]: 0%
Average (Control %) ([3]; 0.4 + 0 ppm (mixing partner alone at 0.4 ppm)): 0%
Average (Control %) [4, 11]: 0%

Cc1cc(Cl)cc(C(=O)N=S(C(C)C)C(C)C)c1NC(=O)c1cc(C(F)(F)F)nn1-c1ncccc1Cl [Compound I-21, 2-(3-chloro-2-pyridyl)-N-[2-methyl-4-chloro-6-[(bis-2-propyl-λ^4-sulfanylidene)carbamoyl]phenyl]-5-(trifluoromethyl)pyrazole-3-carboxamide]
Average (Control %) [5, 8]: 0%
Average (Control %) [3, 9]: 0%
Average (Control %) [3, 7]: 50%
Average (Control %) [4, 8]: 0%

CN/C(=N\[N+](=O)[O-])NCc1cnc(Cl)s1 [Clothianidin]
Average (Control %) [3, 11]: 0%
Average (Control %) ([4]; 1 + 0 ppm (mixing partner alone at 1 ppm)): 0%
